Reference: ChEMBL document CHEMBL1201862, “PubChem BioAssay data set” (2004)
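1) Cells in 96-well plates. 2) Compound, 48 h, 5 concentrations. 3) Linear interpolation between surrounding doses. 4) Unreached endpoint = highest concentration. GI50 marks 50% less growth.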 Activity calls are given as the source filed them. No stated cut-off is given here; in the data, active = GI50 up to about 1.1 µM and inactive = higher.

How the values were obtained:
Assay in all cases: DTP human tumour cell line panel, 48 h
[1] = tested on: SK-MEL-5
[2] = tested on: DLD-1
[3] = tested on: RPMI-8226
[4] = tested on: LOX IMVI
[5] = tested on: KM-20L2
[6] = tested on: UO-31
[7] = tested on: NCI/ADR-RES
[8] = tested on: UACC-257
[9] = tested on: Malme-3M
[10] = tested on: SF-268
[11] = tested on: UACC-62
[12] = tested on: OVCAR-8
[13] = tested on: CCRF-CEM
[14] = tested on: OVCAR-3
[15] = tested on: HCT-116
[16] = tested on: SF-539
[17] = tested on: HOP-18
[18] = tested on: A549
[19] = tested on: MOLT-4
[20] = tested on: OVCAR-4

Measured: GI50

COc1cc(/C=C/c2ccc(OC)c(OC)c2)oc(=O)c1
inactive: [1] > 250 µM | [2] > 250 µM | [3] > 250 µM | [4] > 250 µM | [5] > 167 µM | [6] > 250 µM | [7] > 250 µM | [8] > 250 µM | [9] > 250 µM | [10] > 170 µM | [11] 247 µM | [12] 10 µM | [13] > 194 µM | [14] > 250 µM | [15] > 250 µM | [16] 213 µM | [17] 4.88 µM | [18] > 250 µM | [19] > 250 µM | [20] > 250 µM

Cc1cccc2ns[s+]c12
inactive: [1] 89.7 µM | [2] > 100 µM | [3] 99.5 µM | [5] > 100 µM | [6] 53 µM | [8] > 100 µM | [9] > 100 µM | [10] 82 µM | [11] 38.5 µM | [12] 47.1 µM | [13] 33.3 µM | [14] > 100 µM | [15] 20 µM | [16] 50.7 µM | [17] > 100 µM | [18] > 100 µM | [19] 38.5 µM | [20] > 100 µM

O=NN(CCCl)C(=O)N[C@H]1CC[C@@H](O)CC1
inactive: [1] 52.4 µM | [2] 24.6 µM | [3] 14 µM | [4] 26.1 µM | [5] > 100 µM | [6] 72.4 µM | [7] 23.3 µM | [8] 32.3 µM | [9] 24.8 µM | [10] 13.6 µM | [11] 13 µM | [12] 33 µM | [13] 12.8 µM | [14] 33.2 µM | [15] 34 µM | [16] 23.3 µM | [17] 35.2 µM | [18] 81.3 µM | [19] 20.6 µM | [20] 60.4 µM

CCOC(=O)Cn1c(=O)c(C)cn(COCCO)c1=O
inactive: [1] > 100 µM | [3] > 100 µM | [4] > 100 µM | [6] > 100 µM | [7] > 100 µM | [8] > 100 µM | [9] > 100 µM | [10] > 100 µM | [12] > 100 µM | [13] > 10 µM | [14] > 100 µM | [16] > 100 µM | [18] > 100 µM | [19] > 100 µM | [20] > 100 µM

CCN1CCCC(NCc2c3ccccc3c(CNC3CCCN(CC)C3)c3ccccc23)C1 (stereo unspecified)
inactive: [1] 14.1 µM | [2] 12.8 µM | [3] 10.2 µM | [4] 6.37 µM | [5] 3.76 µM | [6] 24.8 µM | [7] 25 µM | [8] 10.9 µM | [9] 21.6 µM | [10] 7.8 µM | [11] 12.9 µM | [12] > 33.7 µM | [13] 3.34 µM | [14] 3.8 µM | [15] 4.5 µM | [16] 14.9 µM | [17] 5.92 µM | [18] > 48 µM | [19] 3.18 µM | [20] 5.2 µM

CN(C)CC(C)(C)/C(=N\Nc1ccccc1)c1ccccc1
inactive: [1] 70 µM | [2] 30.4 µM | [3] 10.3 µM | [4] 14.6 µM | [5] 16.8 µM | [6] 12.3 µM | [8] 51.6 µM | [9] 46.8 µM | [10] 31.8 µM | [11] 14.8 µM | [12] 99.8 µM | [13] 29.7 µM | [14] 54.8 µM | [15] 68.4 µM | [16] 24.6 µM | [17] 35 µM | [18] 92.5 µM | [19] 46.3 µM | [20] 45.4 µM

CCOC(=O)C1=C(C)N2CCCOC2(C)C(C(=O)OC)C1c1cccc([N+](=O)[O-])c1 (stereo unspecified)
inactive: [1] 39.6 µM | [3] 35 µM | [5] > 100 µM | [6] 51.6 µM | [8] 86.5 µM | [10] > 100 µM | [11] 45.6 µM | [12] 48 µM | [13] 76.6 µM | [14] 42.9 µM | [15] 49.7 µM | [16] > 100 µM | [18] 64.3 µM | [19] 34.3 µM

Cc1ccc(C2COc3cc(O)c(O)cc3C2)cc1 (stereo unspecified)
inactive: [1] 18.9 µM | [2] 17.5 µM | [3] 7.11 µM | [4] 12.1 µM | [5] 35.9 µM | [6] 30 µM | [7] 15.7 µM | [8] 21.3 µM | [9] 18.7 µM | [10] 13.2 µM | [11] 18.5 µM | [12] 15 µM | [13] 1.82 µM | [14] 13.8 µM | [15] 12.4 µM | [16] 22.4 µM | [17] 43.5 µM | [18] 43.6 µM | [19] 4.48 µM | [20] 20.4 µM

CC(C)NC(=O)OCc1c(CO)c2c(n1C)-c1ccccc1CC2
inactive: [1] 27.2 µM | [2] 20.7 µM | [3] 17.7 µM | [4] 25.4 µM | [5] 30.8 µM | [6] 23.7 µM | [7] 24.5 µM | [8] 31.3 µM | [9] 23.9 µM | [10] 36.1 µM | [11] 18.3 µM | [12] 22.5 µM | [13] 12.6 µM | [14] 22.4 µM | [15] 17.2 µM | [16] 23.6 µM | [17] 15 µM | [18] 40.6 µM | [19] 14.3 µM | [20] 26.3 µM
